From patent publication US20230382926A1, “COMPOUNDS AND USES THEREOF” (The University of The West Indies, priority 2022, published 2023)

Assays:
Assay in all cases: Rescue concentration, modified checkerboard MIC adjuvant assay
Format in all cases: cell-based
[1] = test system: Enterobacter cloacae ATCC BAA-1143; settings: E. cloacae ATCC BAA-1143
Method: (§1) Reference microorganisms as well as clinical strains used to evaluate the antimicrobial adjuvant properties of SP-6azaBIM 125 and SP-6azaBIM 136 are listed in Table 3. Clinical strains of bacteria were kindly provided by the Faculty of Medical Sciences, UWI, St. Augustine, Trinidad. All bacterial cultures were cryopreserved in 30% glycerol/Brain Heart Infusion (BHI) at −80° C. Cultures were revived on BHI agar (Oxoid Ltd, England) and maintained at 4° C. until needed.
(§2) Prior to each experiment, cultures were streaked onto clean BHI agar plates and incubated at 35° C. for 24 hours. Colonies of the respective cultures were selected and inoculated in phosphate buffer saline (pH 7.5) to a 0.5 McFarland turbidity standard (equivalent to 10^8 CFU mL^−1). For inhibitory studies the bacterial suspensions were diluted 1:100 in cation-adjusted Mueller Hinton Broth (ca-MHB) (Oxoid Ltd, England). Fastidious bacteria including Streptococcus pneumoniae, Haemophilus infuenzae and Clostridium difficile were maintained on BHI agar with 5% defibrinated sheep blood and diluted in ca-MHB with 5% defibrinated sheep blood.
(§3) Antibiotic powders used in this study were purchased from Sigma Aldrich Ltd. (WI, USA). Antibiotic stock solutions were made at 50 mg mL^−1 according to Andrews (2001) and working solutions were prepared 24 h before use and stored at 4° C.
(§4) HCl salts of the of the SP-azaBIM test compounds were prepared prior to testing and stored at 4° C. Working preparations of each compound were made to 1 mg/mL in sterile deionised water.
(§5) The antibiotic adjuvant activity of the SPazaBIMs were evaluated in combination with representative antibiotics (representing 13 antibiotic classes) against the 19 pathogens strains listed in Table 3. To assess the adjuvant properties of the SP-azaBIM molecules, a modified checkerboard minimum inhibitory concentration assay was used. A fixed concentration of the respective antibiotic (susceptible breakpoint concentration) was mixed with a twofold dilution series of the test SP-azaBIM (FIG. 1). This was to determine the concentration of SP-azaBIM needed potentiate the antibiotic at a clinically susceptible breakpoint concentration. Antibiotic susceptible breakpoint concentrations for the respective bacteria were determined using Clinical Laboratory Standards Institute (CLSI) criteria M100 ED31.
(§6) In this study, only those antibiotics to which the bacterial was classed as resistant were included in the adjuvant assays. In this assay we recorded the rescue concentration of the SP-BIM for a respective antibiotic. The rescue concentration was defined as the concentration of the adjuvant that reduces the minimum inhibitory concentration (MIC) of an antibiotic to the susceptibility breakpoint.
(§7) Immediately prior to testing, the respective antibiotic and SP-azaBIM was dissolved in sterile deionised water at 20× the required test concentration. Each microtiter well was then inoculated with 180 μl of bacterial inoculum of 10^6 CFU/ml in ca-MHB, and 10 μl each if the antibiotic and SP-azaBIM was added to the plates. These plates were then incubated at 35° C. for 24 h under aerobic conditions. A similar method was followed for the fastidious pathogens except that they were cultured in ca-MHB with 5% sheep blood and 5% CO2.
(§8) Bacterial growth was visually inspected after the incubation period and the rescue concentration of the test SP-azaBIM was determined as the lowest concentration of the compound needed to reduce bacterial growth by 99.99% at the susceptible breakpoint concentration of the antibiotic. For example, CLSI states that Pseudomonas aeruginosa is susceptible to the Imipenem if the MIC is ≤2 μg mL^−1. If the bacteria can tolerate this concentration in vitro, then the bacteria has an intermediate or absolute resistance toward that antibiotic. […]

[2] = test system: Stenotrophomonas maltophilia MDR 7785; settings: S. maltophilia MDR 7785
Method: as §1, §2, §3, §4, §5, §6, §7, §8

[3] = test system: Acinetobacter baumannii clinical isolate 9978; settings: A. baumannii clinical isolate 9978
Method: as §1, §2, §3, §4, §5, §6, §7, §8

[4] = test system: Enterococcus faecalis ATCC 51299; settings: E. faecalis ATCC 51299
Method: as §1, §2, §3, §4, §5, §6, §7, §8

[5] = test system: Pseudomonas aeruginosa MDR 5805; settings: P. aeruginosa MDR 5805
Method: as §1, §2, §3, §4, §5, §6, §7, §8

[6] = test system: Klebsiella pneumoniae ATCC 49472; settings: K. pneumoniae ATCC 49472
Method: as §1, §2, §3, §4, §5, §6, §7, §8

[7] = test system: Klebsiella pneumoniae ATCC BAA-2814; settings: K. pneumoniae ATCC BAA-2814
Method: as §1, §2, §3, §4, §5, §6, §7, §8

[8] = test system: Staphylococcus aureus ATCC BAA-2312; settings: S. aureus ATCC BAA-2312
Method: as §1, §2, §3, §4, §5, §6, §7, §8

[9] = Amp at susceptible breakpoint 8 μg mL^−1
[10] = Azi at susceptible breakpoint 16 μg mL^−1
[11] = Ceph at susceptible breakpoint 8 μg mL^−1
[12] = Chl at susceptible breakpoint 8 μg mL^−1
[13] = Col at susceptible breakpoint 8 μg mL^−1
[14] = Dox at susceptible breakpoint 4 μg mL^−1
[15] = Gen at susceptible breakpoint 4 μg mL^−1
[16] = Imi at susceptible breakpoint 1 μg mL^−1
[17] = Tet at susceptible breakpoint 4 μg mL^−1
[18] = Cef at susceptible breakpoint 8 μg mL^−1
[19] = Imi at susceptible breakpoint 2 μg mL^−1
[20] = Mero at susceptible breakpoint 2 μg mL^−1
[21] = Amox at susceptible breakpoint 8 μg mL^−1
[22] = Col at susceptible breakpoint 2 μg mL^−1
[23] = Pol B at susceptible breakpoint 2 μg mL^−1
[24] = Tri at susceptible breakpoint 8 μg mL^−1

## Brc1ccc(C(c2c[nH]c3cnccc23)c2c[nH]c3cnccc23)cc1 [SP-6azaBIM 125, 3,3′-((4-bromophenyl)methylene)bis(1H-pyrrolo[2,3-c]pyridine)]
[1]; [9]
  Rescue concentration, Amp (8): 32 µg/mL
[1]; [10]
  Rescue concentration, Azi (16): >128 µg/mL
[1]; [11]
  Rescue concentration, Ceph (8): >128 µg/mL
[1]; [12]
  Rescue concentration, Chl (8): >128 µg/mL
[1]; [13]
  Rescue concentration, Col (8): >128 µg/mL
[1]; [14]
  Rescue concentration, Dox (4): >128 µg/mL
[1]; [15]
  Rescue concentration, Gen (4): >128 µg/mL
[1]; [16]
  Rescue concentration, Imi (1): >128 µg/mL
[1]; [17]
  Rescue concentration, Tet (4): >128 µg/mL
[2]; [18]
  Rescue concentration, Cef (8): 8 µg/mL
[2]; [11]
  Rescue concentration, Ceph (8): 8 µg/mL
[2]; [12]
  Rescue concentration, Chl (8): 4 µg/mL
[2]; Cip at susceptible breakpoint 2 μg mL^−1
  Rescue concentration, Cip (2): 2 µg/mL
[2]; [15]
  Rescue concentration, Gen (4): 8 µg/mL
[2]; [19]
  Rescue concentration, Imi (2): 16 µg/mL
[2]; [20]
  Rescue concentration, Mero (2): 4 µg/mL
[2]; Tri at susceptible breakpoint 2 μg mL^−1
  Rescue concentration, Tri (2): 64 µg/mL
[3]; [21]
  Rescue concentration, Amox (8): 16 µg/mL
[3]; [18]
  Rescue concentration, Cef (8): 2 µg/mL
[3]; [22]
  Rescue concentration, Col (2): 4 µg/mL
[3]; [15]
  Rescue concentration, Gen (4): 2 µg/mL
[3]; [19]
  Rescue concentration, Imi (2): 4 µg/mL
[3]; [20]
  Rescue concentration, Mero (2): 8 µg/mL
[3]; [23]
  Rescue concentration, Pol B (2): 16 µg/mL
[4]; [9]
  Rescue concentration, Amp (8): >128 µg/mL
[4]; [12]
  Rescue concentration, Chl (8): >128 µg/mL
[4]; [14]
  Rescue concentration, Dox (4): >128 µg/mL
[4]; Ery at susceptible breakpoint 0.5 μg mL^−1
  Rescue concentration, Ery (0.5): >128 µg/mL
[4]; [24]
  Rescue concentration, Tri (8): >128 µg/mL
[4]; Van at susceptible breakpoint 4 μg mL^−1
  Rescue concentration, Van (4): >128 µg/mL
[5]; [21]
  Rescue concentration, Amox (8): 128 µg/mL
[5]; [22]
  Rescue concentration, Col (2): >128 µg/mL
[5]; [15]
  Rescue concentration, Gen (4): 16 µg/mL
[5]; [19]
  Rescue concentration, Imi (2): >128 µg/mL
[5]; [20]
  Rescue concentration, Mero (2): >128 µg/mL
[5]; [23]
  Rescue concentration, Pol B (2): >128 µg/mL
[6]; [21]
  Rescue concentration, Amox (8): 4 µg/mL
[6]; [9]
  Rescue concentration, Amp (8): 16 µg/mL
[6]; [13]
  Rescue concentration, Col (8): 4 µg/mL
[6]; [16]
  Rescue concentration, Imi (1): 2 µg/mL
[6]; Mero at susceptible breakpoint 1 μg mL^−1
  Rescue concentration, Mero (1): 4 µg/mL
[6]; Pol B at susceptible breakpoint 8 μg mL^−1
  Rescue concentration, Pol B (8): 4 µg/mL
[7]; [21]
  Rescue concentration, Amox (8): 4 µg/mL
[7]; [9]
  Rescue concentration, Amp (8): 16 µg/mL
[7]; Aze at susceptible breakpoint 4 μg mL^−1
  Rescue concentration, Aze (4): 4 µg/mL
[7]; [10]
  Rescue concentration, Azi (16): 32 µg/mL
[7]; Cef at susceptible breakpoint 16 μg mL^−1
  Rescue concentration, Cef (16): 16 µg/mL
[7]; [11]
  Rescue concentration, Ceph (8): 32 µg/mL
[7]; [12]
  Rescue concentration, Chl (8): 32 µg/mL
[7]; [13]
  Rescue concentration, Col (8): 4 µg/mL
[7]; [14]
  Rescue concentration, Dox (4): 8 µg/mL
[7]; [15]
  Rescue concentration, Gen (4): 16 µg/mL
[7]; [16]
  Rescue concentration, Imi (1): 2 µg/mL
[7]; [17]
  Rescue concentration, Tet (4): 32 µg/mL
[8]; Azi at susceptible breakpoint 2 μg mL^−1
  Rescue concentration, Azi (2): >128 µg/mL
[8]; [15]
  Rescue concentration, Gen (4): 64 µg/mL
[8]; Pen at susceptible breakpoint 0.12 μg mL^−1
  Rescue concentration, Pen (0.12): >128 µg/mL
[8]; [24]
  Rescue concentration, Tri (8): >128 µg/mL
[8]; Van at susceptible breakpoint 2 μg mL^−1
  Rescue concentration, Van (2): >128 µg/mL
